Holding throughout (type): biochemical
One test has as its target T1, Caspase-6 (Homo sapiens, UniProt P55212).
T1 construct: mixing the compounds with the respective active caspases; purchased BioVision K156-100
T1 sequence (P55212 24-179 limits assumed): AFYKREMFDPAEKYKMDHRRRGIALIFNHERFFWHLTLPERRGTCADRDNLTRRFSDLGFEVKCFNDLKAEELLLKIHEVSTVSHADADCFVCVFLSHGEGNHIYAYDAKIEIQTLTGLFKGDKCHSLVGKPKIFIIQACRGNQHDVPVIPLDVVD
T1 sequence (P55212 194-293 limits assumed): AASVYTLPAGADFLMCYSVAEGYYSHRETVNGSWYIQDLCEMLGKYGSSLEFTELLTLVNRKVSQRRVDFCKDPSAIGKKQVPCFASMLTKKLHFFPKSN
The test is described as follows: Caspase-6 inhibitor screening assay (BioVision kit, VEID-AFC). To be noted: for inhibition at 10 µM: read-out: % Inhibition at 10 uM Casp6; for inhibition at 100 µM: read-out: % Inhibition at 100 uM Casp6; for pIC50: read-out: IC50 Casp6. How it is done: (§1) The efficacy of an array of compounds as an inhibitor of the activity of Caspases 1 through 10 were assessed by using the respective Caspase Inhibitor Drug Screening Kits (Caspase-1 Catalog #: K151-100, Caspase-2 Catalog #: K152-100, Caspase-3 Catalog #: K153-100, Caspase-4 Catalog #: K154-100, Caspase-5 Catalog #: K155-100, Caspase-6 Catalog #: K156-100, Caspase-7 Catalog #: K157-100, Caspase-8 Catalog #: K158-100, Caspase-9 Catalog #: K159-100, Caspase-10 Catalog #: K160-100, BioVision) following the instructions of the manufacturer. […] Active caspases cleaved their respective synthetic substrates to release free AFC, which was then quantified by fluorometry.
(§2) Briefly, the compounds were first tested at 2 concentrations (10 uM and 100 uM final) to determine if there is a hit. […] Each condition was tested in duplicates. […] For some samples, a smaller range of concentrations was tested depending on the % Inhibition results at 10 uM and 100 uM. Results were summarized in Tables 2, 3, and 4 herein after. Table 2 represents the IC50 values (uM) of the test compounds as inhibitors of the activity of the various caspases.
(§3) (*) RFU (no inhibitor control)—RFU (compound at a specific concentration)
(§4) RFU (no inhibitor control)

A further test concerns the target T2, Caspase-10 (Homo sapiens, UniProt Q92851).
T2 construct: mixing the compounds with the respective active caspases; purchased BioVision K160-100
T2 sequence (Q92851 220-415 limits assumed): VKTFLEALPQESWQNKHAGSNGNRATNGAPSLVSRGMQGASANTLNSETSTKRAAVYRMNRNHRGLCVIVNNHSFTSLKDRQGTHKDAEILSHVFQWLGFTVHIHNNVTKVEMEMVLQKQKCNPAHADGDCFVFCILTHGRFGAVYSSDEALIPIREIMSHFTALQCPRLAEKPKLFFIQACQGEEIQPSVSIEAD
T2 sequence (Q92851 416-521 limits assumed): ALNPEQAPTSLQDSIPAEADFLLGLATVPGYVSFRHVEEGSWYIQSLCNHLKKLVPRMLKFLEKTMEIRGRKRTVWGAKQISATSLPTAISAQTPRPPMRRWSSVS
The test is described as follows: Caspase-10 inhibitor screening assay (BioVision kit, AEVD-AFC). To be noted: for inhibition at 10 µM: read-out: % Inhibition at 10 uM Casp10; for inhibition at 100 µM: read-out: % Inhibition at 100 uM Casp10; for pIC50: read-out: IC50 Casp10. How it is done: as §1, §2, §3, §4

Another test addresses T3, Caspase-5 (Homo sapiens, UniProt P51878).
T3 construct: mixing the compounds with the respective active caspases; purchased BioVision K155-100
T3 sequence (P51878 137-327 limits assumed): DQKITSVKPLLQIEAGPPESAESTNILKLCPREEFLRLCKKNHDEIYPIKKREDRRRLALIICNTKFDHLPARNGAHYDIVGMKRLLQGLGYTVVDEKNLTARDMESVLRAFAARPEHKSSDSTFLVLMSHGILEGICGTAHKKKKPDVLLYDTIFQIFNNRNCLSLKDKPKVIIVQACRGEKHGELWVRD
T3 sequence (P51878 347-434 limits assumed): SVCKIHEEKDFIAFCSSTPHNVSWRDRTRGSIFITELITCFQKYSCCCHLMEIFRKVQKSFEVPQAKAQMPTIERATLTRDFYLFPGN
The test is described as follows: Caspase-5 inhibitor screening assay (BioVision kit, WEHD-AFC). The note with it: for inhibition at 10 µM: read-out: % Inhibition at 10 uM Casp5; for inhibition at 100 µM: read-out: % Inhibition at 100 uM Casp5; for pIC50: read-out: IC50 Casp5. How it is done:
as §1, §2, §3, §4

The next test has as its target T4, Caspase-4 (Homo sapiens, UniProt P49662).
T4 construct: mixing the compounds with the respective active caspases; purchased BioVision K154-100
T4 sequence (P49662 81-270 limits assumed): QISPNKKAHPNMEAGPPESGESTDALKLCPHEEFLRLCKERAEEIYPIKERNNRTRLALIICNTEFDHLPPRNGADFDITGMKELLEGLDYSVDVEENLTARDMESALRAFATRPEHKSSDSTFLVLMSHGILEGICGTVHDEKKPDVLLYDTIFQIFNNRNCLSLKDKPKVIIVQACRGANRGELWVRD
T4 sequence (P49662 290-377 limits assumed): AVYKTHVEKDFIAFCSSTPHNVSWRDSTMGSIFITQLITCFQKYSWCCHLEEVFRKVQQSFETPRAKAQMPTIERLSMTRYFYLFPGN
The test can be described thus: Caspase-4 inhibitor screening assay (BioVision kit, LEVD-AFC). The note with it: for inhibition at 10 µM: read-out: % Inhibition at 10 uM Casp4; for inhibition at 100 µM: read-out: % Inhibition at 100 uM Casp4; for pIC50: read-out: IC50 Casp4. How it is done: as §1, §2, §3, §4

Each structure is given as a SMILES string. pIC50: −log10 of the molar value. Where a name gives a salt, the structure may show the parent alone.

Usually inhibition stands for the percentage by which the read-out fell short of the control. For orientation: pIC50 means the negative decadic logarithm of the IC50, by convention in mol/L. On to `CS(=O)(=O)/C(Cl)=C/[C@@H](N)CC(=O)O` [Compound 4, Asp achlorovinyl methyl vinyl sulfone, Tosyl Salt], for which the inhibition at 10 µM amounted to 0% on Caspase-6, 36% at Caspase-10, 0% at Caspase-5 and 0% on Caspase-4. The inhibition at 100 µM at Caspase-6 is 0%; at Caspase-10, 43%; on Caspase-5, 1%; on Caspase-4, 0%. Further, the negative-log IC50 (pIC50) at Caspase-6, on Caspase-10, on Caspase-5 and on Caspase-4 was less than 4.00 in each case.

As for `CC(C)[C@H](NC(=O)c1ccc2ccccc2n1)C(=O)N[C@H](/C=C/S(C)(=O)=O)CC(=O)O` [Compound 16, 2-Quinoline carbonyl-Val-Asp methyl vinyl sulfone], the inhibition at 10 µM stood at 0% at Caspase-6, 26% on Caspase-10, 0% at Caspase-5 and 0% at Caspase-4. Moreover, the inhibition at 100 µM on Caspase-6 worked out at 0%; on Caspase-10, 35%; at Caspase-5, 10%; on Caspase-4 it was 0%. In addition, the pIC50 at Caspase-6, on Caspase-10, on Caspase-5 and at Caspase-4 was less than 4.00 each time.

For `CS(=O)(=O)/C=C/[C@H](CC(=O)O)NC(=O)[C@H](CCC(=O)O)NC(=O)c1ccc2ccccc2n1` [Compound 18, 2-Quinoline carbonyl-Glu-Asp methyl vinyl sulfone], the inhibition at 10 µM at Caspase-6 was found to be 0%; on Caspase-10, 14%; at Caspase-5, 0%; on Caspase-4 it was 0%. In addition, the inhibition at 100 µM was 8% on Caspase-6, 0% on Caspase-10, 1% on Caspase-5 and 0% at Caspase-4. The pIC50 on Caspase-6, on Caspase-10, at Caspase-5 and at Caspase-4 was less than 4.00 in each case.

Consider `CC(C)(C)[C@H](NC(=O)c1ccc2ccccc2n1)C(=O)N1CC[C@@H]1C(=O)N[C@H](/C=C/S(C)(=O)=O)CC(=O)O` [Compound 20, 2-Quinoline carbonyl-t-Leu-(Azetidine-2-carbonyl)-Asp methyl vinyl sulfone], for which the inhibition at 10 µM on Caspase-6 amounted to 0%; on Caspase-10, 42%; on Caspase-5, 55%; at Caspase-4, 85%. The inhibition at 100 µM is 0% on Caspase-6, 93% at Caspase-10, 96% at Caspase-5 and 100% at Caspase-4. The negative logarithm of the IC50 (pIC50) at Caspase-6 was less than 4.00; on Caspase-10 it was 4.90; on Caspase-5, 5.08; on Caspase-4, 5.81.

For the compound `CC(C)(C)OC(=O)CC[C@H](NC(=O)OC(C)(C)C)C(=O)N[C@H](/C=C/S(C)(=O)=O)CC(=O)OC(C)(C)C` [Compound 21, Boc-Glu(O—tBu)-Asp (O—tBu)-methyl vinyl sulfone], the inhibition at 10 µM at Caspase-6 stood at 1%; on Caspase-10, 0%; on Caspase-5 it was 3%; on Caspase-4 it was 0%. Also, the inhibition at 100 µM at Caspase-6 was determined as 10%; on Caspase-10 it was 0%; on Caspase-5, 7%; at Caspase-4, 4%. Also, the negative logarithm of the IC50 (pIC50) at Caspase-6, on Caspase-10, on Caspase-5 and on Caspase-4 was less than 4.00 throughout.

For the compound `CS(=O)(=O)/C=C/[C@H](CC(=O)O)NC(=O)[C@@H](N)CCC(=O)O` [Compound 22, Glu-Asp methylsulfone], the inhibition at 10 µM at Caspase-6 is 1%; at Caspase-10, 15%; on Caspase-5 it was 11%; on Caspase-4 it was 0%. The inhibition at 100 µM on Caspase-6 was found to be 0%; at Caspase-10, 14%; on Caspase-5, 0%; at Caspase-4, 0%. For the same compound, the negative-log IC50 (pIC50) on Caspase-6, at Caspase-10, on Caspase-5 and on Caspase-4 was less than 4.00 throughout.

Take `CS(=O)(=O)/C=C/[C@H](CC(=O)O)NC(=O)[C@H]1CCC(=O)N1` [Compound 24, (2-Pyrrolidinone-5-carbonyl)-Asp methyl vinyl sulfone]: the inhibition at 10 µM at Caspase-6 worked out at 0%; at Caspase-10, 21%; on Caspase-5, 0%; on Caspase-4 it was 1%. Also, the inhibition at 100 µM on Caspase-6 amounted to 0%; at Caspase-10, 15%; on Caspase-5, 0%; at Caspase-4 it was 0%. Moreover, the pIC50 on Caspase-6, on Caspase-10, at Caspase-5 and on Caspase-4 was less than 4.00 in each case.

For the compound `CS(=O)(=O)/C=C/[C@H](CC(=O)O)NC(=O)[C@H]1CCCN1C(=O)[C@@H](NC(=O)[C@H](CC(=O)O)NC(=O)OCc1ccccc1)c1ccccc1` [Compound 30, Z-Asp-Phenylglycine-Pro-Asp-methyl vinyl sulfone], the inhibition at 10 µM at Caspase-6 was 0%; at Caspase-10 it was 43%; at Caspase-5 it was 8%; at Caspase-4 it was 50%. Further, the inhibition at 100 µM turned out to be 2% at Caspase-6, 92% at Caspase-10, 50% on Caspase-5 and 100% on Caspase-4. Also, the pIC50 on Caspase-6 is less than 4.00; on Caspase-10 it was 4.89; on Caspase-5 it was roughly 4.00; at Caspase-4 it was 5.00.

In the case of `CC(C)(C)[C@@H](NC(=O)[C@H](CC(=O)O)NC(=O)OCc1ccccc1)C(=O)N1CC[C@@H]1C(=O)N[C@H](/C=C/S(C)(=O)=O)CC(=O)O` [Compound 32, Z-Asp-t-Leu-(Azetidine-2-carbonyl)-Asp-methyl vinyl sulfone], the inhibition at 10 µM at Caspase-6 came to 0%; at Caspase-10, 97%; on Caspase-5 it was 23%; on Caspase-4 it was 76%. The inhibition at 100 µM turned out to be 1% on Caspase-6, 100% at Caspase-10, 77% at Caspase-5 and 100% on Caspase-4. The pIC50 at Caspase-6 was less than 4.00; at Caspase-10, 6.38; at Caspase-5 it was 4.45; on Caspase-4, 5.25.

(Values after patent US10975119B2, “Selective cysteine protease inhibitors and uses thereof” (Genesis Technologies Limited, priority 2011, dated 2021).)
